This note sets out measurements from ChEMBL document CHEMBL1201862, “PubChem BioAssay data set” (2004).

The source made the active and inactive calls.

Assay [1] is described as follows: control 3'UTR Renilla luciferase suppression, dose response, counter-screen for Shn3 inhibitor project, cell-based, Clone20-Shn3RL, cherry-picked (AID 624133). It counts as functional.
In a further assay the target is Protein Wnt-3a (Mus musculus, UniProt P27467). Nature of the assay: Wnt3a-driven reporter signaling inhibition, dose response, selectivity assay for Gli-SUFU antagonist project, Wnt-LIGHT cells, luminescence (AID 651570).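 Also: Wnt-LIGHT reporter cells stimulated with conditioned medium from Wnt3a-producing cells.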 In kind it is functional. Particulars: read-out: IC50_Mean.
Chain of Protein Wnt-3a (P27467 whole entry): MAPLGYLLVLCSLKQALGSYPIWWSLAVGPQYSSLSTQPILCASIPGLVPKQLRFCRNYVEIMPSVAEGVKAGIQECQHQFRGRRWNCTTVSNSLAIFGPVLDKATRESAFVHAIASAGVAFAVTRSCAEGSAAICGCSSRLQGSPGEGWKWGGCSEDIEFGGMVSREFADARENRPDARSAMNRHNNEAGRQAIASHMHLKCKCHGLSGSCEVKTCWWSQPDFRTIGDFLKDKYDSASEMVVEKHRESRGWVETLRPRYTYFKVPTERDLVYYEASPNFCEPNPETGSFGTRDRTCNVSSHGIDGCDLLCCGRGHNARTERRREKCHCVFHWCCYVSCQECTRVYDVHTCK
A short description of assay [2]: HepG2 cell cytotoxicity, dose response, cytotoxicity control for Shn3 inhibitor project, CellTiter-Glo, cherry-picked (AID 624134). In kind it is functional, cell-based.
In a further assay the test system is INS1. The experiment in a line: beta cell apoptosis inhibitors, cytokine rescue, dose response, luminescence, retest (AID 449756).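 Also: cell death triggered by IL-1 beta plus TNF-alpha plus IFN-gamma mixture; protective hits raise ATP signal compared with cytokine alone wells.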 Particulars: Rattus norvegicus. It counts as functional, cell-based.
Assay [3] in a line: Shn3 3'UTR reporter inhibitors, dose response, cell-based, Clone20 osteoblasts, firefly luciferase, cherry-picked (AID 624132).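 Also: firefly luciferase luminescence from reporter carrying the Shn3 3'UTR in osteoblasts.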 It counts as functional.
Assay [4] addresses Adenosylmethionine-8-amino-7-oxononanoate aminotransferase (Mycobacterium tuberculosis, UniProt P9WQ81). Nature of the assay: Mycobacterium tuberculosis BioA enzyme inhibitor Measured in Biochemical System Using Plate Reader - 2163-02_Inhibitor_Dose_CherryPick_Activity. In kind it is functional, Mycobacterium tuberculosis UT205.
Assay [5] deals with T1, Heat shock factor protein 1 (Mus musculus, UniProt P38532).
T1 sequence (P38532 whole entry): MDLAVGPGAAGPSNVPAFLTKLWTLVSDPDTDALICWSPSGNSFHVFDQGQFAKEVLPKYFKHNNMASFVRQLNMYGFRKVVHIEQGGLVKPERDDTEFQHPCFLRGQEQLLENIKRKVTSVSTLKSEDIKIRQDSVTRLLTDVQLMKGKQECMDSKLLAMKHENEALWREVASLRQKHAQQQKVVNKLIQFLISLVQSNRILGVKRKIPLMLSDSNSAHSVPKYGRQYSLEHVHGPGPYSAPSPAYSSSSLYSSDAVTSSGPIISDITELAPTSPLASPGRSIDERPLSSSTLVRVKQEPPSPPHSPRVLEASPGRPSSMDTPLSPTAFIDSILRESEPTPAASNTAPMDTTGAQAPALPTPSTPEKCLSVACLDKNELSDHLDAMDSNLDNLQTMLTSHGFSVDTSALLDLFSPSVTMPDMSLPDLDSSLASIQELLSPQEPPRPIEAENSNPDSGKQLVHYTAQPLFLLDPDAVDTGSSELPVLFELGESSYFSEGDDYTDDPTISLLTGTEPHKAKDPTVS
The experiment in a line: HSF1 potentiators in luciferase reporter cells, confirmation, cell-based, NIH3T3, luminescence, dose retest (AID 435004).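 Also: stress induced by proteasome inhibitor MG132 added 30 min after compound; luciferase reporter driven by HSF1 response element in NIH3T3 cells; actives raise luminescence as potentiators of the MG132 stress response.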 It counts as functional.

Assay [6] is described as follows: cytotoxicity toward DRD oncogenic fibroblasts, dose response, cell-based, non-viral oncogenic, luminescence (AID 1934). It counts as functional. Particulars: Homo sapiens.
Assay [7] relates to BJ. Nature of the assay: cytotoxicity toward BJ-TERT fibroblasts, dose response, cell-based, RAS-independent, luminescence (AID 1933). Particulars: Homo sapiens. In kind it is functional.
Assay [8] concerns the target T2, Microphthalmia-associated transcription factor (Homo sapiens, UniProt O75030).
T2 sequence (O75030 whole entry): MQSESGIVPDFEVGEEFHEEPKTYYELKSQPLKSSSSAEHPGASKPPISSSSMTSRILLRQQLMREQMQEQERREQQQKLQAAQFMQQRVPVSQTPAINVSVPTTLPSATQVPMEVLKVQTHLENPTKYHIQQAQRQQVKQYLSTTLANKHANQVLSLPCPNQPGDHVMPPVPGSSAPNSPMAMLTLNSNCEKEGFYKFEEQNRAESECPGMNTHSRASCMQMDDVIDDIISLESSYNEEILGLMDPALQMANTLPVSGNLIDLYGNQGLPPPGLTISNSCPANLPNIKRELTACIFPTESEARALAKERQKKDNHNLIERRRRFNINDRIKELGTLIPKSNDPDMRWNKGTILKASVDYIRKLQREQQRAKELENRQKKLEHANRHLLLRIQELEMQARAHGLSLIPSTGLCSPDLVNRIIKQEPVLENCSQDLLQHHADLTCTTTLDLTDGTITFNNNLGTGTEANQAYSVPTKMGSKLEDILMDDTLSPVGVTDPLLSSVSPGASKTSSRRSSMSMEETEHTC
The experiment in a line: TRPM1 promoter luciferase signal decrease, dose response, MITF inhibitor project, cell-based, SK-MEL-5, cherry-picked, set 3 (AID 493073).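 Also: SK-MEL-5 melanoma cells with luciferase driven by the MITF target TRPM1 promoter.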 In kind it is functional.

Assay [9] concerns BJ. Nature of the assay: cells. It counts as functional, cell-based. Particulars: Homo sapiens.
For assay [10], the system named is BJ. Nature of the assay: cytotoxicity toward BJ-TERT-LT-ST fibroblasts, dose response, cell-based, RAS-independent, luminescence (AID 1935).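 Also: BJ fibroblasts immortalized with TERT plus LT and ST oncogenes.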 It counts as functional. To be noted: Homo sapiens.
A short description of assay [11]: Fluorescence-based cell-based high throughput dose response assay for inhibitors of the interaction of nucleotide-binding oligomerization domain containing 2 (NOD2) and the receptor-interacting serine-threonine kinase 2 (RIPK2). It counts as functional. To be noted: Homo sapiens.
The target in assay [12] is Heat shock protein HSP 90-alpha (Homo sapiens, UniProt P07900). It counts as functional, organism-based.
The target of assay [13] is T3, Sentrin-specific protease 7 (Homo sapiens, UniProt Q9BQF6).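 Also: Luminescence-based dose-response confirmation of ultra-high-throughput screening hits, measuring inhibition of SENP7.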
T3 sequence (Q9BQF6 whole entry): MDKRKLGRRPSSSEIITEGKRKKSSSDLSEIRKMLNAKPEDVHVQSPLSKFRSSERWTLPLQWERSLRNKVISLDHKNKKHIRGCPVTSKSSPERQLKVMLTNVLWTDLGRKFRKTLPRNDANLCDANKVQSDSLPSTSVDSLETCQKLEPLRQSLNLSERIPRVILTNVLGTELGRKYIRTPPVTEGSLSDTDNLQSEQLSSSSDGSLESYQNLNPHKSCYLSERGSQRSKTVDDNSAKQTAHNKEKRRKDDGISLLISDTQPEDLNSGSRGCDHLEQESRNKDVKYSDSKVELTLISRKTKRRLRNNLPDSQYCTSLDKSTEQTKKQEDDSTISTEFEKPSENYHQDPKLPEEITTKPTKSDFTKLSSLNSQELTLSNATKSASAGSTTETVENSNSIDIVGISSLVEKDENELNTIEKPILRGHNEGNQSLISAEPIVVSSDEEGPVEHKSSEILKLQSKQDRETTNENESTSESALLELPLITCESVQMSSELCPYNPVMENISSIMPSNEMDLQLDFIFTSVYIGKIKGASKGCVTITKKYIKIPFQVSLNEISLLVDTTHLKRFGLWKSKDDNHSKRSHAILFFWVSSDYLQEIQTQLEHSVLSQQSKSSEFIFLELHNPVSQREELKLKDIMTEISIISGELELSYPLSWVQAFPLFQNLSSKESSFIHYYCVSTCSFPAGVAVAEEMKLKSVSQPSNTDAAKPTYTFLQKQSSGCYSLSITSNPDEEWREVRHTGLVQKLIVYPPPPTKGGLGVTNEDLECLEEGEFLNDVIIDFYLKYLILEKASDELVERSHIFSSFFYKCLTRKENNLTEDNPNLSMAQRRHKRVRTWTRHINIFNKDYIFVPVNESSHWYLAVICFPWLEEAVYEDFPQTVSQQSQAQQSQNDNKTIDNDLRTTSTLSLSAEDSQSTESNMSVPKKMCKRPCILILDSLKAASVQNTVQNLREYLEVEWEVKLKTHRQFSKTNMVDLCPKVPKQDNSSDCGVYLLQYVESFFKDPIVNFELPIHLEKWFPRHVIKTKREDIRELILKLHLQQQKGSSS
In kind it is functional.

Assay [14] can be described thus: inhibitors of SNCA 5'UTR-driven reporter translation, confirmation, H4 neuroglioma cells, luminescence (AID 1988). It counts as functional, cell-based.
Another assay deals with HEK293. Nature of the assay: inhibitors of LMP1-driven NF-kB reporter, dose response, cell-based, HEK293, luciferase, cherry-pick (AID 588343). It counts as functional. Particulars: Homo sapiens.
Assay [15] can be described thus: MC4R antagonists, dose response, counter-screen for LGR2 antagonist project, cell-based, plate reader, cherry pick (AID 743444).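 Also: transfected HEK 293 cells stimulated with alpha-MSH peptide; potency of inhibitors of the alpha-MSH evoked signal.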 It counts as functional.
For assay [16], the target named is T4, Sentrin-specific protease 8 (Homo sapiens, UniProt Q96LD8).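 Also: luminescence read-out of SENP8 inhibition, dose-response confirmation following an ultra-high-throughput screen.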
T4 sequence (Q96LD8 whole entry): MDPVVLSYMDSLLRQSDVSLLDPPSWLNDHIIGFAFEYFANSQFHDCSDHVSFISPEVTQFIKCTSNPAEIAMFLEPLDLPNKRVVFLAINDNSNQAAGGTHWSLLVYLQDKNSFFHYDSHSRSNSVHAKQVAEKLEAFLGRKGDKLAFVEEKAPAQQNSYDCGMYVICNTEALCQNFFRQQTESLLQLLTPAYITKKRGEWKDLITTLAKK
In kind it is functional.

The nature of assay [17]: LGR2 antagonists, dose response, cell-based, HEK293, CRE-luciferase reporter, cherry pick, set 2 (AID 743343).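 Also: transfected cells were stimulated with diluted bursicon conditioned medium after compound addition.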 It counts as functional.
Assay [18] in a line: HepG2 cell cytotoxicity, dose response, cytotoxicity control, plate reader, cherry-pick, antagonist series (AID 743416). In kind it is functional, cell-based.
A short description of assay [19]: Luminescence Cell-Based Dose Response HTS to Identify Inhibitors of 5'UTR Stem-Loop Driven Prion Protein mRNA Translation in H4 Neuroglioblastoma Cells. [Related pubchem assays: 1827 (Project Summary), 1813 (Primary HTS)]. It counts as functional.
Assay [20] can be described thus: HEK293 cell cytotoxicity, dose response, cytotoxicity control, plate reader, cherry-picked samples (AID 743446). It counts as functional, cell-based.
Assay [21] is described as follows: A549 cell cytotoxicity, dose response, cytotoxicity control, plate reader, cherry-pick, antagonist series (AID 743412). In kind it is functional, cell-based.
The target of another assay is T5, Caspase-3 (Homo sapiens, UniProt P42574).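 Also: Dose-response selectivity test against caspase-3 for candidate inhibitors of sentrin-specific proteases (SENPs).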
T5 sequence (P42574 whole entry): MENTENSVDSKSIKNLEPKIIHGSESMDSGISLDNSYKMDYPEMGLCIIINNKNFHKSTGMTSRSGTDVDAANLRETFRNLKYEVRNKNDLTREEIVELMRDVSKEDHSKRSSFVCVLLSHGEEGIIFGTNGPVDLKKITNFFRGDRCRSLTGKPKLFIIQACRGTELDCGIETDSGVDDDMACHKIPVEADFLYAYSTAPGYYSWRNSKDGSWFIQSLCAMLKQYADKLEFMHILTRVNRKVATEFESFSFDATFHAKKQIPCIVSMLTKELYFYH
In kind it is functional.

Assay [22] has as its target T6, Sentrin-specific protease 6 (Homo sapiens, UniProt Q9GZR1).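 Also: Luminescence-based dose-response confirmatory assay of SENP6 inhibition, following up an ultra-high-throughput screen.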
T6 sequence (Q9GZR1 whole entry): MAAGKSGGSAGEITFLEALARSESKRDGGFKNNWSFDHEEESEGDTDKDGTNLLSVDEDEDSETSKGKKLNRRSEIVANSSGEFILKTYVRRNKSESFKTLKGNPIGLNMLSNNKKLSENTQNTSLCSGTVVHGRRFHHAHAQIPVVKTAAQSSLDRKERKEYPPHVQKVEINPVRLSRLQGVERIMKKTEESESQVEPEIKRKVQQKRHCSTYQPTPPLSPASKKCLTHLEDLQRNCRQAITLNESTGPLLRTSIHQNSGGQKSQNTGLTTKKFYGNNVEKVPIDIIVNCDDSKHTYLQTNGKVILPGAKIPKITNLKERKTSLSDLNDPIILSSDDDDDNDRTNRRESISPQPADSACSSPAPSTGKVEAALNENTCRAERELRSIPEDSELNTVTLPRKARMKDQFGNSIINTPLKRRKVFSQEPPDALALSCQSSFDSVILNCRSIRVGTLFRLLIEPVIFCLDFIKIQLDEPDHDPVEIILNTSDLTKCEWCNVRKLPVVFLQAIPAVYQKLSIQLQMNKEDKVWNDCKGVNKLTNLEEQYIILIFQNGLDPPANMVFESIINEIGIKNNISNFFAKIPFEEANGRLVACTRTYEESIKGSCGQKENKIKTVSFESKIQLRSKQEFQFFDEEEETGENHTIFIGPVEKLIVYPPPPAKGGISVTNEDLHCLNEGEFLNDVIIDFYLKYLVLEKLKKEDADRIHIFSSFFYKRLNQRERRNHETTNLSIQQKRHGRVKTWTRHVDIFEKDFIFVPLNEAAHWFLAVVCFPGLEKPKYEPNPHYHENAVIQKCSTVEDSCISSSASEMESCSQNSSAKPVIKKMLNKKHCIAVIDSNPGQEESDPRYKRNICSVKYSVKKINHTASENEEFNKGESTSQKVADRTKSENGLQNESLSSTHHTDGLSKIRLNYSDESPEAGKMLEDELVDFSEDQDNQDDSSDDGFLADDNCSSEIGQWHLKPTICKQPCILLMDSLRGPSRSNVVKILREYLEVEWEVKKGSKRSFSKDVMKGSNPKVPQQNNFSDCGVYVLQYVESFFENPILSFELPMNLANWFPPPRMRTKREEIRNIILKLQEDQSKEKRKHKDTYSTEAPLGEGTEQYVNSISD
In kind it is functional.

Chain of Adenosylmethionine-8-amino-7-oxononanoate aminotransferase (P9WQ81 whole entry): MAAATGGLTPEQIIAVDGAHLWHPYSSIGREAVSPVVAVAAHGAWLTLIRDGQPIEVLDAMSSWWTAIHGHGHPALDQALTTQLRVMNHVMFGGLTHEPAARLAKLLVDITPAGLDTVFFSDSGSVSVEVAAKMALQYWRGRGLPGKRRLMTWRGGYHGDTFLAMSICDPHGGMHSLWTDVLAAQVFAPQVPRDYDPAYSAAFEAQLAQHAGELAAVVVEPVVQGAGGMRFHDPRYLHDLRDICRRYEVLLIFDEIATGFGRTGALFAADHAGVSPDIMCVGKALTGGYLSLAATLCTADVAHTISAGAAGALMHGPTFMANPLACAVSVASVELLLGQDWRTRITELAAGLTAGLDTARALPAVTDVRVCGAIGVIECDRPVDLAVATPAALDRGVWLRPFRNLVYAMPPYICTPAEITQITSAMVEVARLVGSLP

In the case of `CC(CC(=O)N1CCN(c2cccc(Cl)c2)CC1)S(=O)(=O)c1ccc2c(c1)NC(=O)CO2` (configuration not stated), the concentration at half-maximal activity (AC50) in assay [1] was 5.37 µM (active); in [2] it was 34.7 µM (active); in the assay with INS1 it was 5.65 µM (active); in assay [3] it was 3.99 µM (active). Also, on Protein Wnt-3a, the IC50 is 15.1 µM (active).

As for `CC(CNC(=O)CCCn1ncn2c(cc3occc32)c1=O)c1ccccc1` (configuration not stated), the AC50 in assay [4] is 0.785 µM (active).

`COc1cc2c(cc1/C=C/[N+](=O)[O-])OCO2`: the EC50 in assay [5] was 8.55 µM (active); in assay [6] it was 6.07 µM (active); in the assay on BJ [7] it was 8.89 µM (inconclusive); in the assay with BJ [9], 11.5 µM (inconclusive); with BJ [10] it was 8.52 µM (inconclusive). Besides, the AC50 in [8] is 8.98 µM (active); in assay [12], 4.25 µM (active). Moreover, the IC50 in [11] was 3.19 µM (active).

On to `Cc1ccc(-c2nn(CCC(=O)Nc3cccnc3)c(=O)c3ccccc23)cc1`, for which the AC50 in assay [4] was 0.148 µM (active).

In the case of `Cc1ccc(/C=C/c2nc(O)c3ccccc3n2)cc1`, the IC50 in assay [13] was 0.788 µM (active); in assay [16], 1.5 µM (active); at Caspase-3, 0.999 µM (active); in assay [22], 0.961 µM (active). Moreover, the EC50 in assay [14] was 4.45 µM (inconclusive); in assay [19], 14.8 µM (active). In addition, the AC50 with HEK293 is 1.88 µM (active); in assay [15], 2.45 µM (active); in [17], 2.73 µM (active); in [18] it was > 52 µM (inactive); in [20], > 52 µM (inactive); in [21], > 52 µM (inactive).
